Test results published in patent US6946475B1, “Anticancer calcium channel blockers” (University of Virginia Patent Foundation, priority 1999, dated 2005).

Tests used:
[1] = test system: Jurkat cells; assay: Measurement of cellular proliferation, Jurkat cells; type: cell-based; settings: Jurkat, 48 hours; read-out: PROLIFERATION IC50 Jurkat
Protocol: (§1) Measurement of cellular proliferation: LNCaP cells at 2.5×10^4/well or PC3 cells at 5×10^4/well, both in a final volume of 100 μl, were plated in triplicate in standard flat bottom 96 well tissue culture plates in the presence of drug or vehicle (DMSO). Unless otherwise indicated, cells were grown for 48 hours at 37° C. in a CO2 incubator. Relative cell growth was determined with the CellTiter 96 aqueous cell proliferation assay (Promega, Madison, Wis.) as described by the manufacturer using an automated plate reader. Results were calculated in a blinded fashion and are means of triplicate determinations.
(§2) For the 48 hour proliferation, cells were cultured with calcium channel antagonists or without calcium channel antagonists. The IC50 values of the calcium channel antagonists were determined.
(§3) Using the measurement cell proliferation assay described hereinabove, the cell lines Jurkat, LNCap (prostate cancer cell), PC-31 (prostate cancer cell), DU145 (prostate cancer cell), MDA-468 (breast cancer cell), MDA-36 (Breast cancer cell), MCF-7 (breast cancer cell), MIA PaCa-2 (pancreatic cancer cell), Hep G2 (liver cancer cell), A549 (non-small cell lung cancer cells), NCI H460 (non-small cell lung cancer cells), HT-29 (colon cancer cell), HCT-116 (colon cancer cell) and SK OV-3 (ovarian cancer cell) were cultured in the presence of TH-1177, TH-1205, TH-1201, TH-2109, TH-2029, TH-2043, TN-2085 and TH-2279.

[2] = test system: LNCaP prostate cancer cells; assay: Measurement of cellular proliferation, LNCaP cells; type: cell-based, human
Protocol: as §1, §2, §3

[3] = test system: MDA-361 cells (breast cancer cell); assay: Measurement of cellular proliferation, MDA-361 cells; type: cell-based; settings: MDA-361, 48 hours; read-out: PROLIFERATION IC50 MDA-361
Protocol: as §1, §2, §3

[4] = test system: MCF-7 (breast cancer cell); assay: Measurement of cellular proliferation, MCF-7 cells; type: cell-based; settings: MCF-7, 48 hours
Protocol: as §1, §2, §3

[5] = test system: A549 (non-small cell lung cancer cells); assay: Measurement of cellular proliferation, A549 cells; type: cell-based; settings: A549, 48 hours
Protocol: as §1, §2, §3

[6] = test system: HCT-116 (colon cancer cell); assay: Measurement of cellular proliferation, HCT-116 cells; type: cell-based; settings: HCT 116, 48 hours
Protocol: as §1, §2, §3

[7] = test system: Ca2+ entry in PC3 cells; assay: Measurement of intracellular Ca2+ concentration (Ca2+ entry), PC3 cells; type: cell-based, human
Protocol: Cells were incubated in growth media containing 1 μM of the acetoxy-methyl ester of the Ca^2+-sensitive fluorescent dye indo-1 (indo-1/AM, Molecular Probes, Eugene, Oreg.) for 1 hour at 37° C. Cells were washed three times in buffer A (10 mM HEPES, pH 7.4, 1 mM MgCl2, 3 mM KCl, 1 mM CaCl2, 140 mM NaCl, 0.1% glucose, 1% fetal bovine serum) and suspended to a final concentration of 10^6/ml. Prior to stimulation, cells were warmed to 37° C. Prior to stimulation, cells were also incubated with drug, calcium channel antagonists and the IC50 values were determined. Changes in [Ca^2+] were monitored in an SLM 8100C spectrofluorometer (SLM/Aminco, Urbana, Ill.) using previously published methods, Haverstick, et al. (1998) Cell Calcium, 23: 361-368; Densmore, et al. (1996) Am. J. Physiol., 271:C1494-1503, incorporated herein by reference.
Calcium influx into the cell is suitably stimulated using either (1) a physiological ligand or (2) an endoplasmic reticulum (ER) ATPase inhibitor. Preferably, a physiological ligand is used to stimulate calcium influx into the cell.
Ir. the experiment depicted in FIG. 4A, TH-1177 was added before the cells were stimulated with ATP. […] By 70 s after ATP addition, release of Ca^2+ from the internal storage pool was largely over (for example, see FIG. 5 below) and the maintenance of elevations of [Ca^2+]i over baseline was dependent on Ca entry from the extracellular compartment. […] Therefore, TH-1177 interacts with the Ca^2+ influx pathway.
The efficiency of TH-1177 at blocking Ca^2+ entry was assessed by comparison to the effect of chelation of extracellular Ca^2+ with EGTA, which was considered 100% inhibition of Ca^2+ entry.
The data presented above provide that TH-1177 inhibited the stimulated increase in [Ca^2+]i by blockage of Ca^2+ entry. […] This increase represented release of Ca^2+ from the internal storage pool. Addition of TH-1177 had no effect on the size of this change in [Ca^2+]i. […]

[8] = test system: PC3 cells; assay: Survival of SCID mice inoculated with PC3 cells; type: in vivo
Protocol: Animal Studies: All protocols were approved by the Animal Care Committee of the University of Virginia. SCID mice were housed in a barrier isolation facility of the University of Virginia Department of Comparative Medicine and all personnel observed sterile techniques when entering the facility and handling animals. TH-1177 was dissolved in ethanol and diluted 10-fold in sterile phosphate buffered saline (PBS) immediately prior to each day's injection. Injection volumes of 0.5 ml per animal were used. Vehicle consisted of PBS diluted ethanol. PC3 cells for injection were prepared by washing in sterile PBS three times prior to suspension to 2×10^6 per ml. Each animal received a daily IP injection of vehicle or drug beginning on day 1.
Statistical methods: In vivo survival data were analyzed with Prism 2.01 (GraphPad Software, San Diego, Calif.). The results of the Kaplan-Meier analysis are presented as one-tailed probabilities because there was no reasonable expectation that drug treatment would cause the mice to succumb more rapidly to the implanted cancer than would control animals.
TH-1177 slowed prostate cancer progression in vivo. […] One day later, daily IP injections of TH-1177 or vehicle alone were begun. TH1177 was administered at doses or either 3 mg/kg or 10 mg/kg. […]

[9] = Toxicity in SCID mice without tumors; type: in vivo; settings: 180 mg/kd/d
Protocol: Four SCID mice without tumors were given TH-1177 at a dose of 180 mg/kd/d.

IC50 [1]: 8 µM
IC50 ([2]; FIG. 6A, 48 hours, read-out: IC50 for inhibition of LNCaP proliferation): 4 µM
IC50 [3]: 26 µM
IC50 [4]: 21 µM
IC50 [5]: 71 µM
IC50 [6]: 37 µM
IC50 ([7]; EGTA chelation of extracellular Ca2+ considered 100% inhibition, read-out: IC50 for blocking Ca2+ entry, PC3 cells): 16 µM
SMILES: COc1ccc(CCN2CCC[C@H]2COC(c2ccccc2)c2ccc(Cl)cc2)cc1 (stereo partly drawn) [TH-1177]
Cell growth in presence of compound ([2]; LNCaP, 1 μM or 3 μM, FIG. 7, growth resumed after removal): growth was stopped
Effect of prior treatment on response to second exposure ([2]; LNCaP, FIG. 8): no effect
Effect on increase in [Ca2+]i stimulated by ATP ([7]; PC3, 1 mM ATP, drug added before): concentration dependent inhibition
Effect on release of Ca2+ from the internal storage pool ([7]; PC3, EGTA in medium, 1 mM ATP): no effect
Life span increase ([8]; 3 mg/kg/d daily IP, p=0.047): 34%
Life span increase ([8]; 10 mg/kg/d daily IP, p=0.0044): 38%
Gross findings at necropsy [9]: no gross abnormalities
Histological examination of kidney, adrenal gland, heart and liver [9]: within normal limits
